Structures are written as SMILES.

The target in this assay is T1, HMG-like dorsal switch protein 1 (rSe-DSP1).
T1 construct: recombinant DSP1 protein (rSe-DSP1)
As to the kind of experiment: thermal shift assay with fitted Kd. Format: binding, Spodoptera exigua.
With `O=C1NC(=O)c2ccccc21` [PM, Phthalimide], the Kd stood at 197 µM.

On to `N#Cc1ccccc1C(=O)O` [CBA, o-Cyanobenzoic acid], for which the Kd is 246 µM.

On to `CCOc1cc(O)ccc1OC` [EMP, 3-Ethoxy-4-Methoxyphenol], for which the Kd amounted to 148 µM.

The Kd is the equilibrium constant for the complex coming apart.

Values taken from publication PMC10950498, “Ligands of HMG-like dorsal switch protein 1 of Spodoptera exigua leads to mortality in diamondback moth, Plutellaxylostella” (Heliyon, 2024).
